# Measurements as given in patent US11772141B1, “Method for targeted regulation of soil microbes to synchronize heavy metal/metalloid transformation and greenhouse gas emission reduction and use” (priority 2022, dated 2023).
# Experiments:
# [1] = tested on: soil microbes; conditions: Met 1 mM, Met:Fat 1:10 in combinations
# Method: 5 grams of arsenic-contaminated rice field soils taken from Hunan Province, China was placed into a 20 mL glass sample tube, 2.5 mL of sterilized culture medium was added, and then the glass sample tube was placed in an anaerobic glove box for cultivation. The culture medium was composed of 10 mM NH4Cl, 5 mM NaHCO3, 1 mM KH2PO4, 0.5 mM MgCl2, 0.5 CaCl2, 1 mL of L^−1 vitamin and 1 mL/L of trace elements. […] After addition of the Met and the Fat and after further reaction for 60 days, headspace gas was collected and measured by GC-TCD, a soil suspension was extracted, and ammonium dihydrogen phosphate was added to desorb adsorbed methyl arsenic. After the resulted soil suspension passed through a 0.22-micron membrane, methyl arsenic, including monomethylarsenic, dimethylarsenic and trimethylarsenic oxides, in a soil solution was measured by HPLC-ICPMS. […]
# After further anaerobic culture for 60 days, headspace gas was collected and measured by GC-TCD, a soil suspension was extracted, and ammonium dihydrogen phosphate was added to desorb adsorbed methyl arsenic. After the resulted soil suspension passed through a 0.22-micron membrane, the methyl arsenic in the soil solution was measured by HPLC-ICPMS.
# [2] = tested on: arsM gene; conditions: soil control 950
# Method: Construction of the plasmid standard was performed by ligating a vector pUC19 with a PCR product of arsM or mcrA gene. After a single clone was picked, plasmid DNA was extracted, the DNA concentration was measured with Qubit 3.0 Fluorometer, the gene copy number was calculated, and then the EASY dilution solution was diluted to 10^2-10^8(copy number per μL) to obtain a Standard curve. […] Information and reaction procedures of the primers used for amplification of the arsM and mcrA genes were as follows:
# arsM amplification reaction program: at 95° C. for 10 min; at 95° C. for 30 s, at 60° C. for 45 s, and at 72° C. for 1 min, 40 cycles; and prolonging at 72° C. for 10 min;
# [3] = tested on: mcrA gene; conditions: soil control 1.5*10^6
# Method: Construction of the plasmid standard was performed by ligating a vector pUC19 with a PCR product of arsM or mcrA gene. After a single clone was picked, plasmid DNA was extracted, the DNA concentration was measured with Qubit 3.0 Fluorometer, the gene copy number was calculated, and then the EASY dilution solution was diluted to 10^2-10^8(copy number per μL) to obtain a Standard curve.
# mcrA amplification reaction program: at 95° C. for 10 min; at 95° C. for 15 s, at 58° C. for 30 s, and at 72° C. for 30 s, 40 cycles; and prolonging at 72° C. for 2 min.
structure (smiles),measurement,setting,value
CSCC[C@H](N)C(=O)O [methionine],production of methyl arsenic,[1]; 60 days anaerobic reaction,0.1 µM
same,methane emission,"[1]; 60 days, control group 5.5 mM",18.7 mM
same,transcript copy number of arsM,[2],1200 copies per g of soils
same,transcript copy number of mcrA,[3],2.0*10^7 copies per g of soils
